Assay results from PMC10124904, “Activation of Gcn2 by small molecules designed to be inhibitors” (The Journal of Biological Chemistry, 2023).
Several values for one entry are separate records, joined by “and”; a condition that tells them apart may be missing. Equal entries are not always repeated. One block for each compound: values may come before it.

Experiments:
Type in all cases: cell-based
[1] = target: T1, Gcn2 (Homo sapiens, UniProt Q9P2K8); experiment: P(AAREx6)-Luc Atf4 transcriptional activity reporter in HEK293 cells; details: for dose response of Atf4 activity (P(AAREx6)-Luc): 2× serial dilution from 78 nM to 20 μM
T1 construct: HEK293 cells expressing endogenous WT Gcn2 (End WT); endogenous in cells; host or cells: HEK293 (HEK293A with integrated P(AAREx6)-Luc; HEK293/HEK293T)
Method: HEK-derived cells were used in this study. HEK293T cells were obtained from American Type Culture Collection. HEK293A cells were purchased from Invitrogen. Cells were cultured in Dulbecco's modified Eagle's medium (DMEM) (Corning 10-013-CV) supplemented with 10% (vol/vol) fetal bovine serum (Corning 35-010-CV), 100 U/ml penicillin, and 0.1 mg/ml streptomycin (Hyclone SV30010), hereafter referred to as DMEM complete, at 37 °C in 5% CO2 humidified incubator. […] To create cells stably expressing a luciferase reporter for Atf4 transcription activity, HEK293A cells were transduced with a lentivirus encoding an Atf4 transcription reporter (P(AAREx6)-Luc), which consists of six copies of C/ebp-Atf4 consensus binding sequence (5′-[…]-3′) upstream of a minimal promoter followed by the firefly luciferase coding sequence. Selection of the stable expression of the luciferase reporter was selected in DMEM complete supplemented with 1 μg/ml puromycin.
For transcriptional reporter assays, HEK293-P(AAREx6)-Luc cells were seeded into 96-well plate at 10,000 cells/well and cultured in DMEM complete at 37 °C with 5% CO2 overnight. After 24 h, cells were treated with HF or Gcn2iB, as indicated. After 6 h of culture, the media was replaced with 1:1 dilution of DMEM complete to Bio-Glo luciferase assay reagent (Promega Cat # G7940). The assay plate was incubated at room temperature for 15 min at 200 rpm on rotary plate shaker and then luminescence was read on BioTek Synergy H1 microplate reader using 1 s integration time and gain setting between 135 and 200. Luciferase activity was measured as luminescence for each of three experiments per treatment.

[2] = target: T1, Gcn2; experiment: Immunoblot of ISR markers (p-Gcn2, p-eIF2α, Atf4) in HEK293 cells with endogenous Gcn2 (End. WT)
[3] = target: T2, Flag-Gcn2 WT (Homo sapiens, UniProt Q9P2K8); experiment: Atf4-Luc translational reporter, Gcn2 KO HEK293 cells expressing Flag-Gcn2 WT; details: 50 nM Gcn2iB vs vehicle, 6 h
T2 construct: Transomic Technologies) was inserted into pCDNA5; expressed in transfected cells; host or cells: HEK293 Gcn2 KO cells, transient transfection of pCDNA5-Gcn2
Excerpt: (§1) The human Gcn2 coding sequence from pENTR223-1 Gcn2 (NM_001013703; Transomic Technologies) was inserted into pCDNA5 to create an amino-terminal 3× flag tag fusion with Gcn2 by using an In-Fusion HD cloning kit and a three-way cloning reaction method. The resulting plasmid pCDNA5-Gcn2, referred to in the text as Flag-Gcn2, was used as a template to construct the mutant versions detailed in Table 1 by site-directed mutagenesis using an In-Fusion HD cloning kit (Takara Bio). The Gcn2 expressing plasmid was introduced transiently into the HEK293-Gcn2 KO cells as described in the following complementation section. Plasmid pMSCV-Gadd34-puro contains the human Gadd34 (PPP1R15A, NM_014330.5) gene subcloned into the NcoI/EcoRI sites of the retroviral vector pMSCV-puro ([24]).
(§2) For translational reporter assays, HEK293-Gcn2 KO cells were cotransfected with WT or mutant Gcn2 and the reporter Atf4-Luc and nano-luciferase plasmids and then treated with HF or Gcn2iB. Gcn2 activity was measured in a dual luciferase assay. To perform this experiment, HEK293-Gcn2 KO cells were seeded into 12-well plates at 50,000 cells/well. […] The Atf4-Luc and nano-luciferase signals were measured with Nano-Glo Dual-Luciferase Reporter Assay kit (Promega Cat #N1620) using a Turner Biosystems 20/20 luminometer. […]

[4] = target: T3, Flag-Gcn2 K619A (Homo sapiens, UniProt Q9P2K8, K619A); experiment: Atf4-Luc translational reporter, Gcn2 KO HEK293 cells expressing Flag-Gcn2 K619A; details: 50 nM Gcn2iB, 1 μM neratinib, 2 μM dovitinib or 2 μM dabrafenib, 6 h
T3 construct: Transomic Technologies) was inserted into pCDNA5; expressed in transfected cells; host or cells: HEK293 Gcn2 KO cells, transient transfection
Excerpt: as §1
(§3) For translational reporter assays, HEK293-Gcn2 KO cells were cotransfected with WT or mutant Gcn2 and the reporter Atf4-Luc and nano-luciferase plasmids and then treated with HF or Gcn2iB. Gcn2 activity was measured in a dual luciferase assay. To perform this experiment, HEK293-Gcn2 KO cells were seeded into 12-well plates at 50,000 cells/well. […] For experiments with Gadd34 expression, 100 ng of vector control or Gadd34 expression plasmid was included in the transfection. […] The Atf4-Luc and nano-luciferase signals were measured with Nano-Glo Dual-Luciferase Reporter Assay kit (Promega Cat #N1620) using a Turner Biosystems 20/20 luminometer. Firefly luciferase activity was normalized to nano-luciferase control for each of three biological replicates.

[5] = target: T4, Flag-Gcn2 M2 (F1143L/R1144L) (Homo sapiens, UniProt Q9P2K8, F1143L/R1144L); experiment: Atf4-Luc translational reporter, Gcn2 KO HEK293 cells expressing Flag-Gcn2 M2; details: 50 nM Gcn2iB, 1 μM neratinib, 2 μM dovitinib or 2 μM dabrafenib, 6 h
T4 construct: Transomic Technologies) was inserted into pCDNA5; expressed in transfected cells; host or cells: HEK293 Gcn2 KO cells, transient transfection
Excerpt: as §1, §2

[6] = target: T5, Flag-Gcn2 M802F (Homo sapiens, UniProt Q9P2K8, M802F); experiment: Atf4-Luc translational reporter, Gcn2 KO HEK293 cells expressing Flag-Gcn2 M802F; details: Gcn2iB concentrations up to 4 μM, 6 h
T5 construct: Transomic Technologies) was inserted into pCDNA5; expressed in transfected cells; host or cells: HEK293 Gcn2 KO cells, transient transfection
Excerpt: as §1, §2

[7] = target: T6, Flag-Gcn2 M802V (Homo sapiens, UniProt Q9P2K8, M802V); experiment: Atf4-Luc translational reporter, Gcn2 KO HEK293 cells expressing Flag-Gcn2 M802V; details: 4 nM Gcn2iB, 6 h
T6 construct: Transomic Technologies) was inserted into pCDNA5; expressed in transfected cells; host or cells: HEK293 Gcn2 KO cells, transient transfection
Excerpt: as §1, §2

[8] = target: T7, Flag-Gcn2 T899A (Homo sapiens, UniProt Q9P2K8, T899A); experiment: Atf4-Luc translational reporter, Gcn2 KO HEK293 cells expressing Flag-Gcn2 T899A; details: 6 h; for increase in Atf4-Luc activity: T899A Gcn2, 50 nM Gcn2iB, 1 μM neratinib, 2 μM dovitinib or 2 μM dabrafenib
T7 construct: Transomic Technologies) was inserted into pCDNA5; expressed in transfected cells; host or cells: HEK293 Gcn2 KO cells, transient transfection
Excerpt: as §1, §3

[9] = target: T1, Gcn2; experiment: Atf4-Luc translational reporter in HEK293 cells (endogenous Gcn2); details: 6 h
[10] = Gcn2iB pretreatment 30 min, then 12.5 nM HF 6 h
[11] = 25 nM HF, time course up to 6 h
[12] = 2 μM tunicamycin, 6 h, immunoblot

T7 sequence (Q9P2K8 whole entry T899A): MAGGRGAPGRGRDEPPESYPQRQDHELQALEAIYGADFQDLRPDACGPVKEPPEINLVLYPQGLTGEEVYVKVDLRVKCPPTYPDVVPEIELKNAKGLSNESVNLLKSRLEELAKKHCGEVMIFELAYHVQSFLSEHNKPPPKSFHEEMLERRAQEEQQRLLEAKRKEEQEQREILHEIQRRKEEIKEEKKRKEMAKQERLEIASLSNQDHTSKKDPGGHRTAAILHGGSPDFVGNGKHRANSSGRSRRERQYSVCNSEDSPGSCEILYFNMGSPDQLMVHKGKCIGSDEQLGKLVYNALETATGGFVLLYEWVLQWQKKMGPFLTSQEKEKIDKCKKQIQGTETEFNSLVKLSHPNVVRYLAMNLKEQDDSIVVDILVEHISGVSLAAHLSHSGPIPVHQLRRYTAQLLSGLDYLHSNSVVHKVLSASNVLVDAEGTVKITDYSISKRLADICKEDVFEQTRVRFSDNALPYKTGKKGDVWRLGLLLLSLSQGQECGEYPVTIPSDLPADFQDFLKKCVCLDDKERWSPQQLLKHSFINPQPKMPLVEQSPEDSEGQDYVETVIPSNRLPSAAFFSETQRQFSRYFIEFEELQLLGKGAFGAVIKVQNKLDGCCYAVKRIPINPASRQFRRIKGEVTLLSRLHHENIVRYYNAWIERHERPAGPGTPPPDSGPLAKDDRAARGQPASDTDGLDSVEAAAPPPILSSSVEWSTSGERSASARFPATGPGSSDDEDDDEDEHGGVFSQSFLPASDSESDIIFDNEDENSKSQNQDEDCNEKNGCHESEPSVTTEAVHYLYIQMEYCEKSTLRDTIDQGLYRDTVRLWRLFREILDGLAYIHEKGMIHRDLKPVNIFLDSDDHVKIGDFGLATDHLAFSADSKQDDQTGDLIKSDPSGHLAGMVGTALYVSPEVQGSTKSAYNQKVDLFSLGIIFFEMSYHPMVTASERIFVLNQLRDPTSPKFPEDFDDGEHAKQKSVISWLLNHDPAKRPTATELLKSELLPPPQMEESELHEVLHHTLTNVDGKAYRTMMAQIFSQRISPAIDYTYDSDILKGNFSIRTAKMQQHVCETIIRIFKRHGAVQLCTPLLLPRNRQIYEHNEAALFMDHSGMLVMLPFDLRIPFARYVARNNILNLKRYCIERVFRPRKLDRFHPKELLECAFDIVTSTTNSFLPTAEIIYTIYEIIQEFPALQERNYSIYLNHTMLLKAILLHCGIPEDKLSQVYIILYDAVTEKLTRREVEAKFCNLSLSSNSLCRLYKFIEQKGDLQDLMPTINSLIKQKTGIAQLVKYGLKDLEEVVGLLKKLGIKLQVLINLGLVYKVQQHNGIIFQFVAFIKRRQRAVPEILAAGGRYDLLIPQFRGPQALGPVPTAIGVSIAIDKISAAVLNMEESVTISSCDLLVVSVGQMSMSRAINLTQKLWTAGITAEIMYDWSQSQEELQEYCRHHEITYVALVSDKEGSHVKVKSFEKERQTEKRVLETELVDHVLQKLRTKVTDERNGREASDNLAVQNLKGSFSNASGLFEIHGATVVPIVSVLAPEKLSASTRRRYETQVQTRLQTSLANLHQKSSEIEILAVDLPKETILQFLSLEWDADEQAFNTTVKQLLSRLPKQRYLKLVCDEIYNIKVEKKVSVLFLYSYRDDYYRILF
T3 sequence (Q9P2K8 whole entry K619A): as the sequence (Q9P2K8 whole entry T899A) above, with K619A, A899T counted along it
T1 sequence (Q9P2K8 whole entry): as the sequence (Q9P2K8 whole entry T899A) above, with A899T counted along it
T2 sequence (Q9P2K8 whole entry): as the sequence (Q9P2K8 whole entry T899A) above, with A899T counted along it
T4 sequence (Q9P2K8 whole entry F1143L/R1144L): as the sequence (Q9P2K8 whole entry T899A) above, with A899T, F1143L, R1144L counted along it
T6 sequence (Q9P2K8 whole entry M802V): as the sequence (Q9P2K8 whole entry T899A) above, with M802V, A899T counted along it
T5 sequence (Q9P2K8 whole entry M802F): as the sequence (Q9P2K8 whole entry T899A) above, with M802F, A899T counted along it

Compound: O=C(CC1NCCCC1O)Cn1cnc2cc(Br)c(Cl)cc2c1=O (stereo not drawn) [HF, Halofuginone]
increase in luciferase signal (P(AAREx6)-Luc) ([1]; 12.5 nM HF, 6 h): approximately 30 fold
P(AAREx6)-Luc activity ([1]; 25 nM HF alone, 6 h): robust induction
time at which expression of Atf4 was enhanced [2, 11]: 1 h
time to increased p-Gcn2 and p-eIF2α [2, 11]: ≤ 30 min
Atf4 levels ([2]; 100 nM HF, 6 h, immunoblot): significant reduction
Atf4-Luc expression ([9]; 25 nM HF alone): robust induction

Compound: CCOc1cc2ncc(C#N)c(Nc3ccc(OCc4ccccn4)c(Cl)c3)c2cc1NC(=O)/C=C/CN(C)C [neratinib]
dose response of Atf4 activity (P(AAREx6)-Luc) ([1]; 6 h): biphasic induction
increase in Atf4-Luc activity [4]: no increase
increase in Atf4-Luc activity [5]: able to increase Atf4-Luc activity
increase in Atf4-Luc activity [8]: able to increase Atf4-Luc activity

Compound: tunicamycin
p-eIF2α and Atf4 [2, 12]: induced p-eIF2α and Atf4
phosphorylation of Gcn2 (T899) [2, 12]: minimal phosphorylation of Gcn2

More lines, main results first:

effect on biphasic induction of luciferase activity by Gcn2iB ([1]; pretreated 30 min with 1 μM A-92 or 2 μM 2B-Act, then Gcn2iB 6 h): ablated
effect of cotreatment on Gcn2iB-induced p-eIF2α and Atf4 levels ([2]; 1 μM A-92 or 2 μM 2B-Act pretreatment 30 min, then 50 nM Gcn2iB 6 h): lowered p-eIF2α and Atf4 levels
Compound: O=C(COc1ccc(Cl)c(F)c1)NC12CC(NC(=O)c3cnc(C(F)F)cn3)(C1)C2 [2B-Act]

effect on HF-induced P(AAREx6)-Luc activity ([1]; 25 nM HF + 2 μM Gcn2iB, 6 h): sharply reduced
Gcn2iB concentration at peak induction of luciferase activity ([1]; Gcn2iB only, absence of HF, 6 h): about 32 nM
peak induction of luciferase activity (P(AAREx6)-Luc) ([1]; Gcn2iB only, absence of HF, 6 h, biphasic): 7.8 fold
IC50 ([1]; Gcn2iB pretreatment 30 min, then 12.5 nM HF 6 h, read-out: IC50 for diminishing HF-induced P(AAREx6)-Luc luciferase signal): 73 nM
time of maximal Atf4 expression ([2]; 50 nM Gcn2iB time course up to 6 h, WT cells): 6 h
induction of p-eIF2α ([2]; 50 nM Gcn2iB time course, WT cells, detected as early as 30 min): 2.7 fold
Gcn2iB concentration giving reductions in HF-induced Atf4 [2, 10]: ≥ 250 nM
Gcn2iB concentration giving reductions in HF-induced p-Gcn2 [2, 10]: ≥ 62.5 nM
Gcn2iB concentration above which p-Gcn2 was lowered below vehicle and Atf4 not appreciably induced ([2]; absence of HF, 6 h): Above 250 nM
Levels Atf4-Luc, fold change upon treatment [3]: 2.7 fold and 3 fold
increase in Atf4-Luc activity [4]: no increase
increase in Atf4-Luc activity [5]: able to increase Atf4-Luc activity
increase in Atf4-Luc activity relative to untreated M802V cells [7]: 2 fold
Levels Atf4-Luc, fold change upon treatment ([8]; 50 nM Gcn2iB vs vehicle, Flag-Gcn2 T899A): 2.8 fold
increase in Atf4-Luc activity [8]: able to increase Atf4-Luc activity
effect on HF-induced Atf4-Luc expression ([9]; 25 nM HF + 2 μM Gcn2iB): sharply diminished
Compound: COc1ncc(Cl)cc1S(=O)(=O)Nc1ccc(F)c(C#Cc2cnc(N)nc2)c1F [Gcn2iB]
Atf4-Luc activity in Gcn2iB dose response [6]: maintained the same level of Atf4-Luc activity

dose response of Atf4 activity (P(AAREx6)-Luc) ([1]; 6 h): biphasic induction
increase in Atf4-Luc activity [4]: no increase
Compound: CN1CCN(c2ccc3nc(-c4c(N)c5c(F)cccc5[nH]c4=O)[nH]c3c2)CC1 [dovitinib]
